According to ChEMBL document CHEMBL5214972, “Design and evaluation of novel analogs of 2-amino-4-boronobutanoic acid (ABBA) as inhibitors of human gamma-glutamyl transpeptidase” (Bioorg Med Chem, 2022):

What was measured:
[1] = target: T1, Glutathione hydrolase 1 proenzyme (Homo sapiens, UniProt P19440); test: Inhibition of human GGT1 expressed in Pichia pastoris assessed as inhibition of GSH hydrolysis measured by L-glutamate release assay
[2] = target: T1, Glutathione hydrolase 1 proenzyme; test: Inhibition of human GGT1 transpeptidation in Pichia pastoris using L-GpNA as substrate in presence of Gly-Gly
[3] = Inhibition of bovine GGT1 transpeptidation using gamma-glutamyl-p-nitroanilide in presence of Gly-Gly; parameters: species or system Bos taurus

T1 sequence (P19440 1-380 limits assumed): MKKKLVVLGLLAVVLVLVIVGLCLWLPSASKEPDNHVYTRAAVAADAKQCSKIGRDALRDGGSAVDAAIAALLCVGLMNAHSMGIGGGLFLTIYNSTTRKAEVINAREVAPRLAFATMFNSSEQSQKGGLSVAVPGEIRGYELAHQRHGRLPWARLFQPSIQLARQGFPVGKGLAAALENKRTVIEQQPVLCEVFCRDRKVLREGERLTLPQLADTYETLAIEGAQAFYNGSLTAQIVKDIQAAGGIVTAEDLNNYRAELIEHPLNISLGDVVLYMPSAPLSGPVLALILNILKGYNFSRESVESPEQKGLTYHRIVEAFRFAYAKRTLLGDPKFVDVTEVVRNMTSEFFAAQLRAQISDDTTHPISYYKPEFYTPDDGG
T1 sequence (P19440 381-569 limits assumed): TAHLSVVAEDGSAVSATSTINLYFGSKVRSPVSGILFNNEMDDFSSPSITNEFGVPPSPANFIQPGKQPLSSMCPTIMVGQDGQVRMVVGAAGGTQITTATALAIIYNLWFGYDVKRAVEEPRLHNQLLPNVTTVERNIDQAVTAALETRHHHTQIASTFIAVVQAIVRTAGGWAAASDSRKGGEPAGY

SMILES	Ki [1] [µM]	Ki [2] [µM]	Ki [3] [µM]
N[C@@H](CCB(O)O)C(=O)O	0.025	0.0054	0.017
C[C@@H](N)CN[C@H](CCB(O)O)C(=O)O	> 1000	254	
O=C(O)[C@@H](CCB(O)O)NCc1ccc(S(=O)(=O)Nc2ccccc2)cc1		173	
NCCN[C@H](CCB(O)O)C(=O)O	260	46	
O=C(O)[C@@H](CCB(O)O)NCc1ccccc1	2150	202	
N[C@H](CCB(O)O)C(=O)O	0.077	0.045	
O=C(O)[C@@H](CCB(O)O)NCCCc1ccccc1	108	49	
N[C@@H](CN[C@H](CCB(O)O)C(=O)O)Cc1ccccc1	508	88	
COc1ccc(CN[C@H](CCB(O)O)C(=O)O)cc1		343	
O=C(O)[C@@H](CCB(O)O)NCCc1ccccc1	356	220	
N[C@H](CN[C@H](CCB(O)O)C(=O)O)Cc1ccccc1		61	
O=C(O)c1cccc(CN[C@H](CCB(O)O)C(=O)O)c1		589	
O=C(O)[C@@H](CCB(O)O)NCc1c[nH]cn1	87	26	
